Reference: US10822318B2, “Lactone-based probes and methods of use thereof” (REGENTS OF THE UNIVERSITY OF MINNESOTA, priority 2017, dated 2020)

Columns and labels:
S. pneumoniae cells = experiment: 3D-SIM imaging of lactone probe labeled cells; assay type: cell-based; conditions: for late divisional cells showing central septal labeling: untreated, ≈41 cells examined
Experimental: Cells from an overnight culture were diluted to OD620 0.02 in 2 ml of fresh BHI prewarmed to 37° C. and incubated at 37° C. in an atmosphere of 5% CO2. At OD620 0.2, 1.5 ml of culture was added to a microfuge tube and centrifuged at room temperature for 5 min at 16000×g. The supernatant was discarded, the pellet was resuspended in 1 ml room temperature PBS, and the culture was centrifuged a second time. The supernatant was discarded and the pellet was resuspended in either 50 μl of PBS with 5 μg mL^−1 7FL or 100 μl PBS with 5 μg mL^−1 8T. The cells were incubated for 20 min at room temperature in the dark. After incubation the cells were spun and washed with 1 ml of PBS (7FL) or 1 ml of PBS containing 50 mM glucose (8T). The cells were spun a second time and washed with 200 μl of PBS (7FL) or 200 μl of PBS with 50 mM glucose (8T), and finally spun a third time and resuspended in 100 μl of cold (4° C.) GTE buffer (50 mM glucose, 20 mM Tris pH 7.5, 1 mM EDTA). The cells were spun down at 4° C., the supernatant was discarded, and the pellet was resuspended in 15 μl of Vectashield Hardest Antifade (Vector Labs) and kept on ice. 1.2 μl of cells in antifade was pipetted onto a clean coverslip, applied to a slide, and imaged via 3D-SIM. 3D-SIM was performed using the OMX 3D-SIM super-resolution system located in the Indiana University Bloomington Light Microscopy Imaging Center (www.indiana.edu/˜lmic/microscopes/index.html#OMX). The system used is equipped with four Photometrics Cascade II EMCCD cameras that allow simultaneous imaging of up to four colors, and is controlled by DV-OMX software, with image processing by Applied Precision softWoRx 6.0.0 software. Exposure times and % T settings for DAPI, Alexa 488, and Alexa 568 images were 5 ms and 100% for all three channels.
For pre-treatment with methicillin followed by lactone probe labeling, duplicate 2 ml cultures of each strain were created and incubated as described above. At OD620 0.12, methicillin was added to a final concentration of 0.1 μg mL^−1 to one culture for each strain, and the strains were placed back in the incubator. After 20 min, all cultures were harvested, labeled, and imaged as described above.
For labeling of cells with both lactone probes, the following changes were made: After a 20 min incubation with 7FL, the cells were spun down and washed once in 1 ml of PBS. The cells were spun again and resuspended in 100 μl of 8T in PBS at 5 μg mL^−1. The cells were incubated for 20 min at room temperature in the dark, and then washed and imaged as described above for 8T labeling.

PBP2x and PBP2b = experiment: Dual-labeling experiments, 7FL followed by 8T; assay type: cell-based, S. pneumoniae; conditions: both 5 μg/mL for 20 minutes
Experimental: S. pneumoniae E193 (Δpbp1b) cells were grown in BHI broth at 37° C. in an atmosphere of 5% CO2 to reach an OD620 of 0.2-0.25. Cells from 1.5 ml of culture were harvested by centrifugation (16,100×g for 2 min at RT) and washed with 1 ml of PBS, pH 7.4. Cell pellets were resuspended in 50 μl of PBS containing 5 μg/ml lactone-L-Phe-FL (7FL) and incubated at RT for 20 min. Cells were then washed with 1 ml PBS prior to suspension in 50 μl of 5 μg/ml solution of Lac-D-Phe-TAMRA (8T) in PBS. After incubation for 20 min at RT, cells were washed and resuspended in 100 μl of PBS containing 10 mg/ml of lysozyme. Cell lysis and sample preparation for SDS PAGE was followed as described earlier.

(2S,3R)-β-lactone-L-Phe-fluorescein [Probe 7FL]
late divisional cells showing central septal labeling (S. pneumoniae cells; wild-type): 85% | late divisional cells showing central septal labeling (S. pneumoniae cells; Δpbp1b): 73% | PBP visualized in dual labeling (PBP2x and PBP2b): PBP2x

(2S, 3R)-β-lactone-D-Phe-TAMRA [Probe 8T]
cells with labeling excluded from the center of the division site (S. pneumoniae cells; after pre-treatment with 7FL, wild-type and Δpbp1b cells): > 83% | late divisional cells showing central septal labeling (S. pneumoniae cells; wild-type): 80.5% | late divisional cells showing central septal labeling (S. pneumoniae cells; Δpbp1b): 75.6% | PBP visualized in dual labeling (PBP2x and PBP2b): PBP2b
